Assay results taken from the NIST ThermoML archive (doi:10.1016/j.jct.2019.01.022).
Numbers after ± are expanded uncertainties.

How the values were obtained:
[1] = for mass density: 293 K, 101.33 kPa, Pycnometric method; for vapor or sublimation pressure: Transpiration method; for Normal melting temperature: DTA
[2] = Molar enthalpy of transition or fusion; settings: DSC

CC(C)NC(=O)Nc1ccccc1 [1-isopropyl-3-phenylurea]
Crystal
Settings | Molar enthalpy of transition or fusion [kcal/mol] | Normal melting temperature [°C] | mass density [kg/m3]
[1] | – | 156.2 ± 2 | 1050 ± 20
[2] | 5.35 ± 0.55 | – | –

[1], Crystal
Settings | vapor or sublimation pressure [kPa]
393.3 K | 0.00201 ± 0.00015
396.2 K | 0.00261 ± 0.00017
400.3 K | 0.00373 ± 0.00025
403.2 K | 0.00478 ± 0.00031
406.5 K | 0.00631 ± 0.00044
409.6 K | 0.00835 ± 0.00056
411.7 K | 0.00986 ± 0.00066
413.7 K | 0.01159 ± 0.00077
416.5 K | 0.01436 ± 0.00094
419.6 K | 0.01814 ± 0.0012
421.5 K | 0.02123 ± 0.0014
423.8 K | 0.02493 ± 0.0016

CC(C)(C)NC(=O)Nc1ccccc1 [1-tert-butyl-3-phenylurea]
Settings | Molar enthalpy of transition or fusion, Crystal 1 [kcal/mol] | Molar enthalpy of transition or fusion, Crystal 2 [kcal/mol] | Normal melting temperature, Crystal 1 [°C] | Triple point temperature, Crystal 2, DSC [K] | mass density, Crystal 2 [kg/m3]
[1] | – | – | 168 ± 2 | 432 ± 2.1 | 1062 ± 20
[2] | 5.9 ± 0.598 | 1.86 ± 0.191 | – | – | –

[1], Crystal 2
Settings | vapor or sublimation pressure [kPa]
385.9 K | 0.00162 ± 0.00012
390 K | 0.00233 ± 0.00015
392.4 K | 0.00294 ± 0.0002
396.3 K | 0.00405 ± 0.00027
400.2 K | 0.00579 ± 0.00041
403.3 K | 0.00737 ± 0.00051
406.2 K | 0.00973 ± 0.00067
410.5 K | 0.01397 ± 0.00092
416.2 K | 0.02115 ± 0.0014
420.6 K | 0.03129 ± 0.002
424 K | 0.03902 ± 0.0025
426.6 K | 0.0483 ± 0.0031
428.8 K | 0.05831 ± 0.0037
430.5 K | 0.066 ± 0.0042

NC(=O)Nc1ccccc1 [N-phenylurea]
[1], Crystal
Settings | vapor or sublimation pressure [kPa]
386 K | 0.00061 ± 5e-05
391.7 K | 0.00103 ± 7e-05
396.2 K | 0.00154 ± 0.0001
399.5 K | 0.00209 ± 0.00015
402.4 K | 0.00275 ± 0.00018
406.2 K | 0.00394 ± 0.00025
408.3 K | 0.0047 ± 0.0003
411.5 K | 0.00607 ± 0.00043
413.6 K | 0.00714 ± 0.00048
